Assay results reported in paper PMC8160210, “Single tryptophan Y160W mutant of homooligomeric E. coli purine nucleoside phosphorylase implies that dimers forming the hexamer are functionally not equivalent” (Scientific Reports, 2021).
Where two headings read alike, the source gives them in different places.

Target: Y160W PNP mutant (Escherichia coli, UniProt P0ABP8, Y161W)
Assay: Fluorescence titrations with phosphate
Set-up: made in house; host or cells: E. coli DH5α-T1; species or system E. coli
Conditions: three-binding-site model, 25 °C
Procedure: All experiments were carried out on the Perkin-Elmer LS55 spectrofluorimeter. Fluorescence spectra were registered using in each case (protein or protein–ligand complex) several excitation wavelengths. Differential spectra were calculated by subtracting spectrum of a protein from the spectrum of the appropriate complex. The negative differential fluorescence intensity means that a decrease of fluorescence upon complex formation is observed. Titrations of the enzyme with phosphate were registered using several excitation and observation wavelengths combinations. When selecting specific wavelengths for such a combination, two criteria were used: (1) the overall change in the fluorescence signal and (2) the complexity of the shape of the titration as the analysis of the multi-phasic curves is more explicit than a uni-phasic curve analysis.
Path length for the excitation was 2 mm and for the emission was 5 mm (half of the cuvette dimensions). A continuous stirring was used during titrations. All measurements were performed at 25 °C. […]
Fluorescence intensity of the WT protein is stable over time, but in the case of the Y160W mutant a slight quenching of fluorescence is observed during titration, which typically lasted about 30 min as the time between each point in the titration was 1 min. Furthermore, adding phosphate during titration stabilises the intrinsic fluorescence of the protein. […] Thus corrected binding curves, F^cor([Pi]), are given by the following equation, in which Fn([Pi]) is the fluorescence intensity measured for the phosphate concentration [Pi], and n is the number of a given titration point in the particular titration:4 FncorPi=FnPi+∑m=1naPim
To check its influence on the intrinsic protein fluorescence, titrations with NaCl were performed, giving dependence F(I). […] Titration curves of the WT protein with phosphate were therefore measured up to 100 mM ionic strength of solution, which is enough to observe a plateau. […] Both F^obs([Pi]) and F(I) were corrected for the time dependent fluorescence quenching, according to Eq. (4), prior to the F^bind([Pi]) calculation. […]

Sequence of Y160W PNP mutant (P0ABP8 2-239 Y161W): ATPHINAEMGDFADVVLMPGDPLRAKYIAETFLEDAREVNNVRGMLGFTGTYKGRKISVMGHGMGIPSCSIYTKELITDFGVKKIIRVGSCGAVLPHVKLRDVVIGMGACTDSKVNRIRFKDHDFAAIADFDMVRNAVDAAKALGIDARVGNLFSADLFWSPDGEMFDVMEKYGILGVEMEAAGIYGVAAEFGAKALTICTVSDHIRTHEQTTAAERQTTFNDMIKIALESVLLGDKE

O=P(O)(O)O [Pi, Orthophosphate]
Kd (50 mM Tris/HCl pH 7.6, read-out: Kd1 ± SD): 7 µM | Kd (50 mM Tris/HCl pH 7.6, read-out: Kd2 ± SD): 200 µM | Kd (50 mM Tris/HCl pH 7.6, read-out: Kd3 ± SD): 3200 µM
